Results on 6 molecules are retold here after publication PMC3906128 (Addiction biology, 2011).

As usually defined, the Ki is a measure of affinity in units of concentration, obtained from inhibition or displacement. As usually defined, the EC50 is the concentration at which the effect is half-maximal.

Where a name gives a salt, the structure may show the parent alone. Read-outs that look alike come from different tables or passages of the source. A value given as a limit tells only on which side of the number the result lay.

In series [1] the test system is DOP-R. The following applies: ref Ananthan et al., 1999, cited from earlier work.
A further series relates to KOP-R. The following applies: in vitro, ref Wells et al., 2001, Xu et al.; cited from earlier work.
Another series deals with Long-Evans rats. The experiment in a line: Yohimbine stress-induced reinstatement of 10% ethanol seeking.
The subject of series [2] is MOP-R. The following applies: ref Ananthan et al., 1999, cited from earlier work.
Series [3] deals with DOP-R. The following applies: in vitro, ref Wells et al., 2001, Xu et al.; cited from earlier work.
For a further series, the system named is corticosterone (CORT). The experiment in a line: Plasma corticosterone measurement. The following applies: SoRI-9409 5 mg/kg I.P. prior to yohimbine 2 mg/kg I.P.; P > 0.05. It counts as in vivo, rat.
Series [4] concerns rats. The following applies: 5 mg/kg I.P., ref Nielsen et al., 2008; cited from earlier work.
Series [5] concerns the target T1, DOP-R1 (Rattus norvegicus, UniProt P33533). Briefly: Inhibition of TAN67-. It counts as biochemical.
In series [6] the test system is DOP-R. Conditions: brain membranes of high-ethanol consuming rats; ref Nielsen et al., 2008; cited from earlier work.
The test system of series [7] is MOP-R. The following applies: in vitro, ref Wells et al., 2001, Xu et al.; cited from earlier work.
Series [8] concerns rats. The following applies: elevated plus maze test in rats; ref Nielsen et al., 2008; cited from earlier work.
Series [9] deals with T1, DOP-R1. Briefly: TAN67-stimulated [35S]GTPγS binding in rat brain membranes. It counts as biochemical. The following applies: for EC50: ethanol-trained rats.
A further series has as its target DOP-R2 (Rattus norvegicus, UniProt P33533). Briefly: Deltorphin II-stimulated [35S]GTPγS binding in rat midbrain membranes. It counts as biochemical. The following applies: Mean (± SEM) EC50 for Midbrain Opioid Stimulation, ethanol-trained rats. On the technique in general: GTPγS is a poorly hydrolysed GTP analogue; its binding reports G protein activation.
Where [10] appears, read: read-out: IC50, inhibition of TAN67-stimulated (10 μmol/L) [35S]GTPγS-binding, midbrain membranes, ethanol-trained rats given SoRI-9409-vehicle prior to yohimbine (2 mg/kg I.P.).

T1 sequence (P33533 whole entry): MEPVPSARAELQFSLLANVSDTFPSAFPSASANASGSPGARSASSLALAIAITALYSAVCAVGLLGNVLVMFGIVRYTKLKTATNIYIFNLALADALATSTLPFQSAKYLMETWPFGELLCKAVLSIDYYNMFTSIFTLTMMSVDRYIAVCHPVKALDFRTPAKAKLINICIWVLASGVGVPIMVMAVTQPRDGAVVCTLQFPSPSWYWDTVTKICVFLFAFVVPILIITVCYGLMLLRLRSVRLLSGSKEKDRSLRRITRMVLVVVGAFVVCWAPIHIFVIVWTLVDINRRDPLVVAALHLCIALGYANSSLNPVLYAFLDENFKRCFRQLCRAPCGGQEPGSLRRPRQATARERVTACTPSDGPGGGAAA
Chain of DOP-R2 (P33533 whole entry): as above

On to `Oc1ccc2c3c1O[C@H]1c4ncc(-c5ccc(Cl)cc5)cc4C[C@@]4(O)[C@@H](C2)N(CC2CC2)CC[C@]314` [SoRI-9409, 5′-(4-Chlorophenyl)-17-(cyclopropylmethyl)-6,7-didehydro-3,14-dihydroxy-4,5-alpha-epoxypyrido[2′,3′:6,7] morphinan], for which the “higher binding affinity at the DOP-R in comparison to naltrexone” value with DOP-R [1] (compared to naltrexone) is on record as “approximately 20 fold”. Moreover, the Ki at DOP-R [1] (read-out: Ki, binding affinity at the DOP-R) was 0.0022 ± 0.0002 µM; on MOP-R [2] (read-out: Ki, binding affinity for the MOP-R), 0.051 ± 0.008 µM. For the same molecule, the “agonist activity at KOP-R” value in the series on KOP-R is given as “no agonist activity”. Moreover, the “antagonist activity at the KOP-R” value in the series with KOP-R is listed as “weak antagonist activity”. Further, the Inactive lever presses in the series on Long-Evans rats (SoRI-9409 1 mg/kg, Vehicle group (yohimbine-vehicle)) stood at 0.8 ± 0.4; with Long-Evans rats (SoRI-9409 1 mg/kg, Yohimbine group (2 mg/kg I.P.)), 1.7 ± 0.5; in the series with Long-Evans rats (SoRI-9409 2.5 mg/kg, Vehicle group (yohimbine-vehicle)), 0.3 ± 0.3; in the series on Long-Evans rats (SoRI-9409 2.5 mg/kg, Yohimbine group (2 mg/kg I.P.)), 1.0 ± 0.4; with Long-Evans rats (SoRI-9409 5 mg/kg, Vehicle group (yohimbine-vehicle)) it was 0.2 ± 0.1; in the series with Long-Evans rats (SoRI-9409 5 mg/kg, Yohimbine group (2 mg/kg I.P.)) it was 0.6 ± 0.4. In addition, the “effect on responding in rats which did not receive yohimbine” value in the series on Long-Evans rats (SoRI-9409 1-5 mg/kg I.P., yohimbine-vehicle only, P > 0.05) is “did not affect responding”. Further, the “reduced binding affinity for the MOP-R in comparison to naltrexone” value in the series with MOP-R [2] (compared to naltrexone) was “approximately 20 fold”. Besides, the “agonist activity at DOP-R” value in the series on DOP-R [3] is given as “no agonist activity”. For the same molecule, in the series with DOP-R [3], the “antagonist activity at the DOP-R” value is recorded as “potent antagonist activity”. The “Plasma CORT levels of SoRI-9409/yohimbine treated rats vs SoRI-9409-vehicle/yohimbine treated rats” value in the series on corticosterone (CORT) is “not different”. For the same molecule, in the series on rats [4], the “effect on ethanol consumption” value is “selective and long-lasting reductions in ethanol consumption”. In addition, on DOP-R1 [5] (setting [10]), the IC50 came out at 0.022 ± 0.0035 µM. The “inhibition of DOP-R-mediated [35S]GTPγS binding” value in the series with DOP-R [6] is on record as “potently inhibits”. Moreover, in the series with MOP-R [7], the “agonist activity at MOP-R” value is listed as “no agonist activity”. For the same molecule, the “antagonist activity at the MOP-R” value in the series on MOP-R [7] is on record as “weak antagonist activity”. The “anxiogenic or anxiolytic effects” value in the series with rats [8] was “does not produce anxiogenic or anxiolytic effects”.
On to `Br.Br.CN1CC[C@]2(c3cccc(O)c3)Cc3nc4ccccc4cc3C[C@H]2C1` [TAN67, SB 205607 dihydrobromide], for which, on DOP-R1 [9] (midbrain membranes, from Table 2 EC50 values), the “higher TAN67-mediated DOP-R1 activity in yohimbine-treated rats compared to vehicle-treated rats” value is on record as over 700 fold. Moreover, the EC50 was 5.2 ± 0.3 µM at DOP-R1 [9] (read-out: Mean (± SEM) EC50 for Midbrain Opioid Stimulation, midbrain membranes, SoRI-9409 (5 mg/kg I.P.)/Yohimbine (2 mg/kg I.P.)); over 100 µM at DOP-R1 [9] (read-out: Mean (± SEM) EC50 for Midbrain Opioid Stimulation, midbrain membranes, SoRI-9409 (5 mg/kg I.P.)/Yohimbine-vehicle); 0.14 ± 0.04 µM on DOP-R1 [9] (read-out: Mean (± SEM) EC50 for Midbrain Opioid Stimulation, midbrain membranes, SoRI-9409-vehicle/Yohimbine (2 mg/kg I.P.)); over 100 µM at DOP-R1 [9] (read-out: Mean (± SEM) EC50 for Midbrain Opioid Stimulation, midbrain membranes, SoRI-9409-vehicle/Yohimbine-vehicle); over 100 µM on DOP-R1 [9] (read-out: Mean (± SEM) EC50 for TAN67 Stimulation, Striatum, striatal membranes, SoRI-9409 (5 mg/kg I.P.)/Yohimbine (2 mg/kg I.P.)); over 100 µM at DOP-R1 [9] (read-out: Mean (± SEM) EC50 for TAN67 Stimulation, Striatum, striatal membranes, SoRI-9409 (5 mg/kg I.P.)/Yohimbine-vehicle). The EC50 is over 100 µM at DOP-R1 [9] (read-out: Mean (± SEM) EC50 for TAN67 Stimulation, Striatum, striatal membranes, SoRI-9409-vehicle/Yohimbine (2 mg/kg I.P.)) and over 100 µM at DOP-R1 [9] (read-out: Mean (± SEM) EC50 for TAN67 Stimulation, Striatum, striatal membranes, SoRI-9409-vehicle/Yohimbine-vehicle).
As for `CC(C)[C@H](NC(=O)[C@H](CCC(=O)O)NC(=O)[C@H](Cc1ccccc1)NC(=O)[C@@H](C)NC(=O)[C@@H](N)Cc1ccc(O)cc1)C(=O)N[C@H](C(=O)NCC(N)=O)C(C)C` [Deltorphin II, [D-Ala^2]-Deltorphin II], the EC50 on DOP-R2 (SoRI-9409 (5 mg/kg I.P.)/Yohimbine (2 mg/kg I.P.)) is 22 ± 4 µM; on DOP-R2 (SoRI-9409 (5 mg/kg I.P.)/Yohimbine-vehicle), over 100 µM; on DOP-R2 (SoRI-9409-vehicle/Yohimbine (2 mg/kg I.P.)) it was 27 ± 2.9 µM; on DOP-R2 (SoRI-9409-vehicle/Yohimbine-vehicle), over 100 µM.
Take `O=C1/C(=C/c2ccccc2)C[C@@]2(O)[C@H]3Cc4ccc(O)c5c4[C@@]2(CCN3CC2CC2)[C@H]1O5` [BNTX, 7-benzylidenenaltrexone maleate salt hydrate]: at DOP-R1 [5] (setting [10]), the IC50 stood at 0.037 ± 0.0048 µM.
For the molecule `Oc1ccc2c3c1O[C@H]1c4[nH]c5ccccc5c4C[C@@]4(O)[C@@H](C2)N(CC2CC2)CC[C@]314` [naltrindole, naltrindole hydrochloride], the IC50 on DOP-R1 [5] stood at 0.046 ± 0.0038 µM.
In the case of `COC(=O)[C@@H]1[C@H]2C[C@H]3c4[nH]c5ccccc5c4CCN3C[C@@H]2CC[C@@H]1O` [Yohimbine, reference compound], the “active lever presses (30 min)” value in the series on Long-Evans rats (SoRI-9409-vehicle prior to yohimbine 2 mg/kg I.P., ethanol-extinguished rats, vehicle/vehicle 10.9 ± 1.8) was 48.0 ± 7.0 presses. For the same molecule, in the series with Long-Evans rats (SoRI-9409-vehicle, Yohimbine group (2 mg/kg I.P.)), the Inactive lever presses turned out to be 2.1 ± 0.7.
